# Reference: ChEMBL document CHEMBL5678818, “Discovery of potent SOS1 inhibitors that block RAS activation via disruption of the RAS-SOS1 interaction” (Proc Natl Acad Sci U S A, 2019)
# Key:
# [1] = system: Epidermal growth factor receptor (Homo sapiens), P00533 [G719S]; experiment: Inhibition of EGFR G719S mutant (unknown origin) assessed as residual activity at 1000 nM by KINOMEscan analysis relative to control
# [2] = target: Tyrosine-protein kinase receptor UFO (Homo sapiens) (UniProt P30530); experiment: Inhibition of AXL (unknown origin) assessed as residual activity at 1000 nM by KINOMEscan analysis relative to control
# [3] = target: T1, Serine/threonine-protein kinase Sgk1 (Homo sapiens) (UniProt O00141); experiment: Inhibition of SGK (unknown origin) assessed as residual activity at 1000 nM by KINOMEscan analysis relative to control
# T1 sequence (whole entry): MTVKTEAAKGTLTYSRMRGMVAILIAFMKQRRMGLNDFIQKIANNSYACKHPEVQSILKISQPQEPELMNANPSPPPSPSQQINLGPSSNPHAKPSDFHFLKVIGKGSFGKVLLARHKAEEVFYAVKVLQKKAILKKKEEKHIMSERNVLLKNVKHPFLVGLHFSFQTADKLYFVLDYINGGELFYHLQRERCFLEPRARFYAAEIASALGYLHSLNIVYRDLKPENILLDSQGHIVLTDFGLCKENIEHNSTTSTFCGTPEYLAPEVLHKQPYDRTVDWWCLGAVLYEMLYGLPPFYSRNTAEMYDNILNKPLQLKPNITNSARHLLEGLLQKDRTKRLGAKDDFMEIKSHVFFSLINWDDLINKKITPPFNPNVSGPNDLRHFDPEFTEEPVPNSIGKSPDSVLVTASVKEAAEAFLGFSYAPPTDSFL
# [4] = target: Cyclin-dependent kinase 2 (Homo sapiens) (UniProt P24941); experiment: Inhibition of CDK2 (unknown origin) assessed as residual activity at 1000 nM by KINOMEscan analysis relative to control
# [5] = target: Calcium-dependent protein kinase 1 (Plasmodium falciparum) (UniProt P62344); experiment: Inhibition of Plasmodium falciparum CDPK1 assessed as residual activity at 1000 nM by KINOMEscan analysis relative to control
# [6] = target: Tyrosine-protein kinase FRK (Homo sapiens) (UniProt P42685); experiment: Inhibition of FRK (unknown origin) assessed as residual activity at 1000 nM by KINOMEscan analysis relative to control
# [7] = target: Serine/threonine-protein kinase 38 (Homo sapiens) (UniProt Q15208); experiment: Inhibition of NDR1 (unknown origin) assessed as residual activity at 1000 nM by KINOMEscan analysis relative to control
# [8] = target: Serine/threonine-protein kinase OSR1 (Homo sapiens) (UniProt O95747); experiment: Inhibition of OSR1 (unknown origin) assessed as residual activity at 1000 nM by KINOMEscan analysis relative to control
# [9] = target: Myosin light chain kinase, smooth muscle (Homo sapiens) (UniProt Q15746); experiment: Inhibition of MYLK (unknown origin) assessed as residual activity at 1000 nM by KINOMEscan analysis relative to control
# [10] = system: Receptor-type tyrosine-protein kinase FLT3 (Homo sapiens), P36888 [N841I]; experiment: Inhibition of FLT3 N841I mutant (unknown origin) assessed as residual activity at 1000 nM by KINOMEscan analysis relative to control
# [11] = target: Cyclin-dependent kinase 2 homolog (Plasmodium falciparum (isolate K1 / Thailand)) (UniProt Q07785); experiment: Inhibition of Plasmodium falciparum PK5 assessed as residual activity at 1000 nM by KINOMEscan analysis relative to control
# [12] = target: T2, Dual specificity protein kinase TTK (Homo sapiens) (UniProt P33981); experiment: Inhibition of TTK (unknown origin) assessed as residual activity at 1000 nM by KINOMEscan analysis relative to control
# T2 sequence (whole entry): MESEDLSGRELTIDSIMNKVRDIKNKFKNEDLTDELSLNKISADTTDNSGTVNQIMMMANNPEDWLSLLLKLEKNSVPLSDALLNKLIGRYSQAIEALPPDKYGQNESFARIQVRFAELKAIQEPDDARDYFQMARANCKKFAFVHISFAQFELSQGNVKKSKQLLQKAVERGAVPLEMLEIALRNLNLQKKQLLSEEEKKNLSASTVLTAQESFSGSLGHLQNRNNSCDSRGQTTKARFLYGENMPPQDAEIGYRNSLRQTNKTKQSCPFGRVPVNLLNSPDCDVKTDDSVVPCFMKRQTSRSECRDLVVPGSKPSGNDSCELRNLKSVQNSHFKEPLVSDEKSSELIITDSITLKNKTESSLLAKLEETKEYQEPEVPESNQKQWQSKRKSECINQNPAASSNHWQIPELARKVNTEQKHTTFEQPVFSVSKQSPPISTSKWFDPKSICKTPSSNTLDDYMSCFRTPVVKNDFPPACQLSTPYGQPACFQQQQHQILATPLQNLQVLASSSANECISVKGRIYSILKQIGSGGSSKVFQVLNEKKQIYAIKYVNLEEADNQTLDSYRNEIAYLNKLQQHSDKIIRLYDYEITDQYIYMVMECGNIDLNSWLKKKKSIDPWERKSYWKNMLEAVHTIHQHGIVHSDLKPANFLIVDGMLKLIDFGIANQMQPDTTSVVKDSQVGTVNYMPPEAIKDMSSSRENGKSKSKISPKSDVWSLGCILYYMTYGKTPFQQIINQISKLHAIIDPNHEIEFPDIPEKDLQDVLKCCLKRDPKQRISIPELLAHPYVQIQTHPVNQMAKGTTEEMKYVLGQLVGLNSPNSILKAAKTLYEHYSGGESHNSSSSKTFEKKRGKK
# [13] = target: Mitogen-activated protein kinase 1 (Homo sapiens) (UniProt P28482); experiment: Inhibition of ERK2 (unknown origin) assessed as residual activity at 1000 nM by KINOMEscan analysis relative to control
# Mitogen-activated protein kinase 1 (Homo sapiens), sequence (P28482 whole entry): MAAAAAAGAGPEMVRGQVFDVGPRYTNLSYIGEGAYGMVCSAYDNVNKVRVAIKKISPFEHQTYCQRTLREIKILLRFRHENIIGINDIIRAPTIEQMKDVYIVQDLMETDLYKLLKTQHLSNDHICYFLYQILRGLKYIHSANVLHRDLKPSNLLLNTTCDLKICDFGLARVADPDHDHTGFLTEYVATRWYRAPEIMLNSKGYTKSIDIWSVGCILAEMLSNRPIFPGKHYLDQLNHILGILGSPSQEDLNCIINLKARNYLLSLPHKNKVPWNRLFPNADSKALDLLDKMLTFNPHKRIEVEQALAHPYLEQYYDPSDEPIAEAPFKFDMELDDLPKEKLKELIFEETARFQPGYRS
# Tyrosine-protein kinase receptor UFO (Homo sapiens), sequence (P30530 whole entry): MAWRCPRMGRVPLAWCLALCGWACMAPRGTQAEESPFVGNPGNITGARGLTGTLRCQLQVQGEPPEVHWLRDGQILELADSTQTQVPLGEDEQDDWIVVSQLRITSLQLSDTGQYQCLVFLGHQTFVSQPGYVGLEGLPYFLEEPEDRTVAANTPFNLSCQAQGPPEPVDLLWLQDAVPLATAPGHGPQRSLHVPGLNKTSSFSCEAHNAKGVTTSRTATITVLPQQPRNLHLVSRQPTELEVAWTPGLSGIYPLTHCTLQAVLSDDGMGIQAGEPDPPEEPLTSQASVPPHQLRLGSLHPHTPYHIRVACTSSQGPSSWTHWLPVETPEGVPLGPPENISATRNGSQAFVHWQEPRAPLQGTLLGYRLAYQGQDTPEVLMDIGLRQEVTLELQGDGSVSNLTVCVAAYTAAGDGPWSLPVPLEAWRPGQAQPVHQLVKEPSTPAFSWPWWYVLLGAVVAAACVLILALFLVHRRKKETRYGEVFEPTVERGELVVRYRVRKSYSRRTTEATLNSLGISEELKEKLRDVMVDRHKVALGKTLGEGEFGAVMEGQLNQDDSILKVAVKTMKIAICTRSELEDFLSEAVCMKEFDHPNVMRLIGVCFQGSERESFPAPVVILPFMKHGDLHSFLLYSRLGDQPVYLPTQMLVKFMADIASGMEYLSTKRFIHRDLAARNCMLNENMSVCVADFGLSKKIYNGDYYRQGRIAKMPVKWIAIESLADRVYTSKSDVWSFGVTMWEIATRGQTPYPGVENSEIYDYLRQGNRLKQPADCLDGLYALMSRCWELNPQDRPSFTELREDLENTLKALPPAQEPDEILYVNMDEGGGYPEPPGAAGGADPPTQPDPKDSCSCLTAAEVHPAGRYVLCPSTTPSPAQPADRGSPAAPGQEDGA
# Serine/threonine-protein kinase 38 (Homo sapiens), sequence (Q15208 2-465 limits assumed): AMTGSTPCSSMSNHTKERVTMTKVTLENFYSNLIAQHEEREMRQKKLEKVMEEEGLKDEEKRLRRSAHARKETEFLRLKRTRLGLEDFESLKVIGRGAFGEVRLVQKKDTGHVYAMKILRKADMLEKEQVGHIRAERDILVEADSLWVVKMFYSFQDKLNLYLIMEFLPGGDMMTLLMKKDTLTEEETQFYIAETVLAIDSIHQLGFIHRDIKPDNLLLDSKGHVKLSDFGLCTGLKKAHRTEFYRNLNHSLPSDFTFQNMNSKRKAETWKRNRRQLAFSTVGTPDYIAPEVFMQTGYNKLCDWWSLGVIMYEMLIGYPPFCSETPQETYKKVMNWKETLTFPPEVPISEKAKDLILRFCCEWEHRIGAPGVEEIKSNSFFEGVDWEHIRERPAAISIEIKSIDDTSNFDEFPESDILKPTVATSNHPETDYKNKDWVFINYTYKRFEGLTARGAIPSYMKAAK
# Tyrosine-protein kinase FRK (Homo sapiens), sequence (P42685 whole entry): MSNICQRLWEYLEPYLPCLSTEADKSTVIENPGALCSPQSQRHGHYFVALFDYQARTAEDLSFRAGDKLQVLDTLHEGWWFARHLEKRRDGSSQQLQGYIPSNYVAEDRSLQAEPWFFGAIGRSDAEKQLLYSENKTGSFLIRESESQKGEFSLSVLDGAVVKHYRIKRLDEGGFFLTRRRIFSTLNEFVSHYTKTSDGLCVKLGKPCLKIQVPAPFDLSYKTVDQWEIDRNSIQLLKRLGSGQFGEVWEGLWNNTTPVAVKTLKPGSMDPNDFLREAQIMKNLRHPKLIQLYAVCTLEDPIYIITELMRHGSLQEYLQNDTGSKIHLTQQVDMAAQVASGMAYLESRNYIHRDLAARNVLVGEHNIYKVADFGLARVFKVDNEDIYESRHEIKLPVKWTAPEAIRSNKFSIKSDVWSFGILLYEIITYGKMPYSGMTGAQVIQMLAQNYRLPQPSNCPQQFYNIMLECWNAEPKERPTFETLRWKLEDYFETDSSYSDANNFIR
# Calcium-dependent protein kinase 1 (Plasmodium falciparum), sequence (P62344 2-524 limits assumed): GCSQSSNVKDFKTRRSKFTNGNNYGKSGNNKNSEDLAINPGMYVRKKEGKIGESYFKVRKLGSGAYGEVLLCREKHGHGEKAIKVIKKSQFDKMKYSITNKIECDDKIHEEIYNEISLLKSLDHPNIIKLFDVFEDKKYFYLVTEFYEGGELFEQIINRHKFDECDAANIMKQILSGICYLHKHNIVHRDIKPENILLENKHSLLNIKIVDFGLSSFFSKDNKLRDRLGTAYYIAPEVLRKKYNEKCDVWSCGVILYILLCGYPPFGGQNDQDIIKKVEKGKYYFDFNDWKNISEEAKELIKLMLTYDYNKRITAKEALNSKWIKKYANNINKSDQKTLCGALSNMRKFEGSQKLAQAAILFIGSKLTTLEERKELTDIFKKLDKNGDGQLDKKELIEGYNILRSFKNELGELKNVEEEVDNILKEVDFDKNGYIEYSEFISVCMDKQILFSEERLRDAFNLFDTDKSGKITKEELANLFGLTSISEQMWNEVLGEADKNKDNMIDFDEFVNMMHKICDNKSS
# Cyclin-dependent kinase 2 homolog (Plasmodium falciparum (isolate K1 / Thailand)), sequence (Q07785 whole entry): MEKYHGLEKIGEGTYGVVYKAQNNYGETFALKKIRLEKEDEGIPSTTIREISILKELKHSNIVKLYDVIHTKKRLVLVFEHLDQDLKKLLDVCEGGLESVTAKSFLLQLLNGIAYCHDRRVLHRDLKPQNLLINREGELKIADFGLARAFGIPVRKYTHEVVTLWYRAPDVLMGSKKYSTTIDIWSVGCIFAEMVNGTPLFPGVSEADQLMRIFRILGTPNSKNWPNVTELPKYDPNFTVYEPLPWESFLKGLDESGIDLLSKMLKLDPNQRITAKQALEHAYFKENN
# Myosin light chain kinase, smooth muscle (Homo sapiens), sequence (Q15746 whole entry): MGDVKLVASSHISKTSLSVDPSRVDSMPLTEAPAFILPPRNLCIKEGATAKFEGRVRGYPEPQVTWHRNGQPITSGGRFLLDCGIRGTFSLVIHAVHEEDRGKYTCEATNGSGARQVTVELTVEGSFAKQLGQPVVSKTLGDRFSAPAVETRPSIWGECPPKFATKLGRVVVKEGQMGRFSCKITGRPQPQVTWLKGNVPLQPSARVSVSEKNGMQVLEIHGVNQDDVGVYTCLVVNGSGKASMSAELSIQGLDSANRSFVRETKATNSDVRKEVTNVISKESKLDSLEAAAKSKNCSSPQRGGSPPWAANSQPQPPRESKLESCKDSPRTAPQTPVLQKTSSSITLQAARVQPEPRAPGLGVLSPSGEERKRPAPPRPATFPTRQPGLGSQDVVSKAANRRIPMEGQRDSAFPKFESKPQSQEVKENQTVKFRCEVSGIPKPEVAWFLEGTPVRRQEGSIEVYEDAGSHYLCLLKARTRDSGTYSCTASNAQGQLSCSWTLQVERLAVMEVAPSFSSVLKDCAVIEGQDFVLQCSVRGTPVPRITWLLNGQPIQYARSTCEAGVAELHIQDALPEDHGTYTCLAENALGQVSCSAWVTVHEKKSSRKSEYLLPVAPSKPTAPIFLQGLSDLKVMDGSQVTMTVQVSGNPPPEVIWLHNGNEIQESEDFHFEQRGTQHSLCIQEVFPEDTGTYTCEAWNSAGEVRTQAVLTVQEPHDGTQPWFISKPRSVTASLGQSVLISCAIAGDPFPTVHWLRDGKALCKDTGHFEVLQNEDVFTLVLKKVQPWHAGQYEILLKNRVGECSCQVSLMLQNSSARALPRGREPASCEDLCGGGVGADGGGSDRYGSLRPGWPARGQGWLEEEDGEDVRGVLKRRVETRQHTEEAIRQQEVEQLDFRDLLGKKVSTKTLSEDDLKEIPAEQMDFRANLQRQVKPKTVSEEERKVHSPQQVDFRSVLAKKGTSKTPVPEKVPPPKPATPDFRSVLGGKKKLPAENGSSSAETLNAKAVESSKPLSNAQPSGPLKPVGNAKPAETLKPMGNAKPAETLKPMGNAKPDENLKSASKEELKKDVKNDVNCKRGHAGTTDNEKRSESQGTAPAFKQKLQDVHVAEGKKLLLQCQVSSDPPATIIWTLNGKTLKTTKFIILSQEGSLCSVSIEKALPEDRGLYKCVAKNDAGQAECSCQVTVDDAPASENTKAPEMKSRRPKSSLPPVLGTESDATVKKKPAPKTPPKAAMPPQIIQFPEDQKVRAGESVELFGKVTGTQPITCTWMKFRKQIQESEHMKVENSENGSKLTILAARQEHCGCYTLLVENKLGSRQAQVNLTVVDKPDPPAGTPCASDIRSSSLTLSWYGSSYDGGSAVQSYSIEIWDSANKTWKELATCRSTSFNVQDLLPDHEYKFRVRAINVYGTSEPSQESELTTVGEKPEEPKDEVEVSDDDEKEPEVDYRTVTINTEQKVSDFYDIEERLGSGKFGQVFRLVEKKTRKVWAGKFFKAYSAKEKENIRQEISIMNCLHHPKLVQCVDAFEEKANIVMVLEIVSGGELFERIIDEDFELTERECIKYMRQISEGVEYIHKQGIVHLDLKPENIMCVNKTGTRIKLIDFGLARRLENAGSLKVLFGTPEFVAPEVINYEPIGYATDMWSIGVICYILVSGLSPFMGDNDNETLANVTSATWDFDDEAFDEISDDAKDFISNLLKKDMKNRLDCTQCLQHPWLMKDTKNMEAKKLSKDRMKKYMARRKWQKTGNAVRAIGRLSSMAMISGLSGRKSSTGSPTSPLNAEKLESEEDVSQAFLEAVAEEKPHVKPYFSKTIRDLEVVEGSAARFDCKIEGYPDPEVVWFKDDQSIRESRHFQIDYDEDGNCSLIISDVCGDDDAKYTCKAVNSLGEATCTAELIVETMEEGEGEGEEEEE
Compound,Activity [1],Activity [2],Activity [3],Activity [4],Activity [5],Activity [6],Activity [7],Activity [8],Activity [9],Activity [10],Activity [11],Activity [12],Activity [13]
COc1cc2ncnc(N[C@H](C)c3cccc4ccccc34)c2cc1OC,1.2%,90%,11%,100%,62%,94%,79%,97%,88%,100%,100%,95%,96%
COc1cc2nc(C)nc(N[C@H](C)c3cccc(-c4cn[nH]c4)c3)c2cc1OC,76%,93%,74%,100%,81%,76%,64%,93%,97%,94%,98%,78%,90%
